The results in this text go back to US6184388A, “Substituted aminocycloalkylpyrrolidine derivatives and cis-substituted aminocycloalkylpyrrolidine derivatives” (Daiichi Pharmaceutical Co., Ltd., priority 1995, dated 2001).

Converted amounts (≈) assume the structure as drawn. Structures can show the parent of a compound that is named as a salt. A value given as a limit tells only on which side of the number the result lay.

Data set [1] relates to Slc:ddy five week male mice. Briefly: acute toxicity, intravenous, mice. In kind it is in vivo. The conditions noted are these: for acute toxicity result compared with the table above: stated in words. Here is the method: A solution of 5-amino-7-[4-(R)-(1-aminocyclopropyl)-3-(S)-fluoro-1-pyrrolidinyl]-6-fluoro-1-[2-(S)-fluoro-1-(R)-cyclopropyl]-1,4-dihydro-8-methyl-4-oxoquinoline-3-carboxylic acid (abbreviated as cis) hydrochloride of Example 15 or 5-amino-7-[4-(R)-(1-aminocyclopropyl)-3-(R)-fluoro-1-pyrrolidinyl]-6-fluoro-1-[2-(S)-fluoro-1-(R)-cyclopropyl]-1,4-dihydro-8-methyl-4-oxoquinoline-3-carboxylic acid (abbreviated as trans) hydrochloride in distilled water for injection was administered intravenously to Slc:ddy five week male mice (five mice per group) and the symptoms are observed.

The subject of data set [2] is Ps. maltophilia, IID-1275. The data set is described as follows: antimicrobial activity (MIC), standard method of the Japan Society of Chemotherapy. It counts as cell-based. The conditions noted are these: for MIC: Stenotrophomonas maltophilia, IID1275, IID-1275 (Table 5: X. maltophilia, IID-1275), read-out: minimum inhibitory concentration (MIC). Here is the method: (§1) Examples of the first and second aspects of the present invention are given below by way of illustration and not by way of limitation. In this regard, the antibacterial and antimicrobial activities of the compounds of interest were measured in accordance with the standard method specified by the Japan Society of Chemotherapy. The results are shown in Tables 1 to 5 as a minimum inhibitory concentration (MIC, μg/ml). Unless otherwise indicated, all percents (%) are by weight.

A further data set relates to E. coli, NIHJ. The data set is described as above. It counts as cell-based. The conditions noted are these: Escherichia coli, read-out: minimum inhibitory concentration (MIC). Here is the method:
as §1

Setting [3] is: 150 mg/kg, *: died immediately after administration, test stopped when second mouse died.

Take `Cc1c(N2C[C@@H](CO)[C@@H](C3(N)CC3)C2)c(F)c(N)c2c(=O)c(C(=O)O)cn(C3CC3)c12` (relative stereo) [Example 14, 5-Amino-7-[cis-4-(1-aminocyclopropyl)-3-hydroxymethyl-1-pyrrolidinyl]-1-cyclopropyl-6-fluoro-1,4-dihydro-8-methyl-4-oxoguinoline-3-carboxylic acid]: in data set [1] (150 mg/kg), the “acute toxicity result compared with the table above” value is recorded as “same result”.

Turning to `Cc1c(N2C[C@@H](F)[C@@H](C3(N)CCC3)C2)c(F)c(N)c2c(=O)c(C(=O)O)cn([C@@H]3C[C@@H]3F)c12` (single isomer, unassigned; isomer b) [Example 13], the “acute toxicity result compared with the table above” value in data set [1] (150 mg/kg) is “same result”. In addition, in data set [2] (IID-1275 (Table 5: X. maltophilia, IID-1275)), the “minimum inhibitory concentration (MIC)” value is 0.20 µg/mL (≈ 0.444 µM).

For the compound `Cc1c(N2C[C@H](F)[C@@H](C3(N)CC3)C2)c(F)c(N)c2c(=O)c(C(=O)O)cn([C@@H]3C[C@@H]3F)c12` [Example 5, 5-Amino-7-[4-(R)-(1-aminocyclopropyl)-3-(R)-fluoro-1-pyrrolidinyl]-6-fluoro-1-[2-(S)-fluoro-1-(R)-cyclopropyl]-1,4-dihydro-8-methyl-4-oxoquinoline-3-carboxylic acid hydrochloride], the Number of death is 0/5 in data set [1] (50 mg/kg); 2/2 in data set [1] (100 mg/kg, *: died immediately after administration, test stopped when second mouse died); 2/2 in data set [1] (setting [3]).

For `COc1c(N2C[C@@H](F)[C@@H](C3(N)CC3)C2)c(F)cc2c(=O)c(C(=O)O)cn([C@@H]3C[C@@H]3F)c12` [Example 12, 7-[4-(R)-(1-Aminocyclopropyl)-3-(S)-fluoro-1-pyrrolidinyl]-6-fluoro-1-[2-(S)-fluoro-1-(R)-cyclopropyl]-1,4-dihydro-8-methoxy-4-oxoguinoline-3-carboxylic acid], the “acute toxicity result compared with the table above” value in data set [1] (150 mg/kg) is recorded as “same result”. Also, in the data set on E. coli, NIHJ, the MIC is not above 0.013 µg/mL.

`Cc1c(N2C[C@@H](F)[C@@H](C3(N)CC3)C2)c(F)c(N)c2c(=O)c(C(=O)O)cn([C@@H]3C[C@@H]3F)c12` [Example 15, 5-Amino-7-[4-(R)-(1-aminocyclopropyl)-3-(S)-fluoro-1-pyrrolidinyl]-6-fluoro-1-[2-(S)-fluoro-1-(R)-cycloproyl]-1,4-dihydro-8-methyl-4-oxoguinoline-3-carboxylic acid hydrochloride]: in data set [1] (setting [3]), the Number of death is listed as 0/5. For the same compound, the MIC in data set [2] is 0.05 µg/mL.

`COc1c(N2C[C@@H](F)[C@@H](C3(N)CC3)C2)c(F)c(N)c2c(=O)c(C(=O)O)cn([C@@H]3C[C@@H]3F)c12` [Example 16, 5-Amino-7-[4-(R)-(1-aminocyclopropyl)-3-(S)-fluoro-1-pyrrolidinyl]-6-fluoro-1-[2-(S)-fluoro-1-(R)-cyclopropyl]-1,4-dihydro-8-methoxy-4-oxoquinoline-3-carboxylic acid]: the “acute toxicity result compared with the table above” value in data set [1] (150 mg/kg) is recorded as “same result”. The MIC in data set [2] was 0.2 µg/mL (≈ 0.442 µM).

Regarding `C[C@H]1COc2c(N3C[C@@H](F)[C@@H](C4(N)CC4)C3)c(F)cc3c(=O)c(C(=O)O)cn1c23` [Example 17, 10-[4-(R)-(1-Aminocyclopropyl)-3-(S)-fluoro-1-pyrrolidinyl]-9-fluoro-2,3-dihydro-3-(S)-methyl-7-oxo-7H-pyrido[1,2,3-de][1,4]benzoxazine-6-carboxylic acid], the “acute toxicity result compared with the table above” value in data set [1] (150 mg/kg) was “same result”.

Regarding `C[C@H]1COc2c(N3C[C@@H](F)[C@@H](C4(N)CC4)C3)c(F)cc3c(=O)c(C(=O)O)cn1c23.Cl` [Example 19, 10-[4-(R)-(1-Aminocyclopropyl)-3-(S)-fluoro-1-pyrrolidinyl]-9-fluoro-2,3-dihydro-3-(S)-methyl-7-oxo-7H-pyrido[1,2,3-de][1,4]benzoxazine-6-carboxylic acid hydrochloride], in data set [2], the MIC stood at 0.39 µg/mL.

As for `C[C@H]1COc2c(N3C[C@@H](F)[C@@H](C4(N)CC4)C3)c(F)c(N)c3c(=O)c(C(=O)O)cn1c23` [Example 21, 8-Amino-10-[4-(R)-(1-aminocyclopropyl)-3-(S)-fluoro-1-pyrrolidinyl]-9-fluoro-2,3-dihydro-3-(S)-methyl-7-oxo-7H-pyrido[1,2,3]-de[1,4]benzoxazine-6-carboxylic acid], the “acute toxicity result compared with the table above” value in data set [1] (150 mg/kg) is given as “same result”. Also, the MIC in data set [2] turned out to be 0.39 µg/mL (≈ 0.928 µM).
